{"source": "patent US20240043539A1", "about": "“METHODS OF INDUCING AN IMMUNOMODULATORY TUMOR RESPONSE” (CORNELL UNIVERSITY, priority 2020, published 2024)", "type_in_all_cases": "cell-based, mouse", "key": {"[1]": {"tested_on": "Arg1-EYFP BMDMs co-cultured with oTME cells", "protocol": "FIGS. 6A-6H show a genome-wide pooled M2-like education screen in primary macrophages. […] Gene hits in EYFP″g BMDMs are highlighted in red. Distribution of LFC values (red lines) across all four sgRNAs of select gene targets (right). […] Arg1-EYFP BMDMs were co-cultured with oTME cells for 7 days, and then were treated with Abemaciclib (5, 10 μM) or DMSO for additional 7 days and analyzed by flow cytometry for EYFP (n=4 replicates). Data are shown as mean±SD., 2-tailed unpaired Student's t-test. […] Arg1-EYFP BMDMs were treated for 7 days with a cytokines cocktail consists of IL-4 (10 ng/mL), IL-13(80ng/mL), M-CSF(10 ng/mL) or with M-CSF alone as control (supplemented every 3 days). Cells were then treated with Abemaciclib (5 μM) or DMSO for additional 7 days and analyzed by flow cytometry for EYFP (n=3 replicates). Data are shown as mean±SD., 2-tailed unpaired Student's t-test. […] Cells then treated with PF-431369 (5 uM) or DMSO for additional 7 days. On day 14, cells were fixed and stained for Arg1 and CD206 and analyzed by flow cytometry. (n=3 replicates). Data are shown as mean±SD., 2-tailed unpaired Student's t-test. […]\nFlow Cytometry and Fluorescence-Activated Cell Sorting (FACS): Flow cytometry data were collected using BD LSRFortessa, BD FACSCanto II, and BD FACSAria III was used for FACS-sort. […]"}, "[2]": {"tested_on": "IL-4/IL-13-treated macrophages (BMDMs)", "experiment": "Arg1 expression in IL-4/IL-13-treated macrophages (absence of oTME cells), flow cytometry"}, "oTME macrophages (BMDMs)": {"tested_on": "oTME macrophages (BMDMs)", "experiment": "γ-secretase inhibition: Ki67 in M2-educated (oTME) macrophages, flow cytometry", "protocol": "BMDMs were co-cultured with oTME cells for 7 days and treated either with CompE ([…]) or DMSO as a control for additional 10 days. Cells were analyzed by flow cytometry for Ki67, F4/80, and CD11b. Data (n=3) are shown as mean±SD., 2-way ANOVA test, Bonferroni-corrected. FIG. 17D is a pre-clinical study design. […] Tumor sizes were recorded by caliper and shown as mean±SD., 2-way ANOVA test, Bonferroni-corrected. At the trial endpoint, lungs were collected and stained with H&E (right). […] At study endpoint, tumor transplants from (FIG. 17E) were scored for Ki67 in macrophages and in tumor cells (PyMT; mT^neg CD45^neg). Data are shown as mean±SD., 2-way ANOVA test, Bonferroni-corrected. Macrophage abundance quantified as percent of CD45+ cells. Data are shown as mean±SD., Mann-Whitney test. […]"}, "[3]": {"tested_on": "BMDMs plated with oTME cells", "experiment": "EdU incorporation in macrophages following 48 hrs oTME education in the presence of Tyk2 inhibitors", "conditions": "BMS-986165, 10 μM vs DMSO, EdU 10 μM", "source_text": "FIGS. 3A-3H show the time course single-cell RNAseq analysis of macrophage TME-education. […] Cells were profiled after 2 and 10 days with the 10× Chromium single-cell RNA-seq platform. […] The figure legend is the same as FIG. 3B. FIG. 3D is a heatmap showing macrophage education expression dynamics of M-CSF-treated (n=214), early (day 2, n=235), late (day 10, n=301) genes. The cells are sorted and split into 20 equal-width bins by the education pseudo-time, average expression level (row-wise Z-score; color scale) of education signature genes (rows) across each bin (columns) is shown. The figure legend is the same as FIG. 3B. […] Genes are dotted and colored by logFC levels (color scale), the size of each dot represents the difference in the fraction of detection between the two groups. The p values were determined by Wilcoxon Rank Sum test. Vertical dotted lines represent ±0.75 logFC. Horizontal dotted lines represent p value of 0.01 (−log10 scale). […] Each dot represents an average of cells in 50 equal-width bins on the education pseudo-time axis, same as FIG. 3E. […] EdU incorporation was analyzed by flow cytometry (n=4 replicates). […]\nEdU Incorporation: Cells were incubated with 10μM EdU (5-ethynyl-2′-deoxyuridine) without changing conditioned growth medium for the required duration and analyzed by flow cytometry according to the manufacturer's instructions (A10202; Thermo Fisher Scientific). […]"}}}
{"smiles": "CN(c1ccccc1CNc1nc(Nc2ccc3c(c2)CC(=O)N3)ncc1C(F)(F)F)S(C)(=O)=O", "note": "[PF-431396]", "values": [{"measurement": "Arg1 expression", "setting": "[1]; oTME macrophages, 10 μM or DMSO for additional 7 days, EYFP by flow cytometry", "result": "robust suppression"}, {"measurement": "Arg1 expression", "setting": "[2]; IL-4/IL-13-treated macrophages, 5 uM or DMSO for additional 7 days, stained for Arg1 and CD206", "result": "robust suppression"}]}
{"smiles": "C[C@H](NC(=O)Cc1cc(F)cc(F)c1)C(=O)N[C@H]1N=C(c2ccccc2)c2ccccc2N(C)C1=O", "note": "[Compound-E]", "values": [{"measurement": "reduction in Ki67 positivity", "setting": "oTME macrophages (BMDMs); 7 days co-culture, then CompE or DMSO for additional 10 days", "result": "89.6±3.8", "unit": "%"}, {"measurement": "expression of F4/80", "setting": "oTME macrophages (BMDMs); oTME macrophages after treatment", "result": "increased"}]}
{"smiles": "[2H]C([2H])([2H])NC(=O)c1nnc(NC(=O)C2CC2)cc1Nc1cccc(-c2ncn(C)n2)c1OC", "note": "[Tyk2 inhibitors, 6-(cyclopropanecarbonylamino)-4-[2-methoxy-3-(1-methyl-1,2,4-triazol-3-yl)anilino]-N-(trideuteriomethyl)pyridazine-3-carboxamide]", "values": [{"measurement": "EdU incorporation in oTME macrophages", "setting": "[3]", "result": "significantly decreased"}]}
{"smiles": "CCN1CCN(Cc2ccc(Nc3ncc(F)c(-c4cc(F)c5nc(C)n(C(C)C)c5c4)n3)nc2)CC1", "note": "[abemaciclib, N-[5-[(4-ethylpiperazin-1-yl)methyl]pyridin-2-yl]-5-fluoro-4-(7-fluoro-2-methyl-3-propan-2-ylbenzimidazol-5-yl)pyrimidin-2-amine]", "values": [{"measurement": "Arg1-EYFP expression", "setting": "[1]; oTME-educated Arg1-EYFP BMDMs, Abemaciclib (5, 10 μM) or DMSO for additional 7 days", "result": "dose-dependent reduction"}, {"measurement": "Arg1-EYFP expression", "setting": "[2]; IL-4/IL-13/M-CSF for 7 days, then Abemaciclib (5 μM) or DMSO for additional 7 days", "result": "suppressed"}]}
